The values below come from paper PMC12136037, “Type II kinase inhibitors that target Parkinson’s disease–associated LRRK2” (Science Advances, 2025).

The structures appear in SMILES notation. Several values for one entry are separate records, joined by “and”; a condition that tells them apart may be missing. Equal values may be shown once.

One assay concerns the target T1, LRRK2^KW (Homo sapiens, UniProt Q5S007).
T1 construct: LRRK2 R1847 to E2527; His6-Z-tag (TEV cleavable) (N, cleaved yes); host or cells: Sf9 insect cells (baculovirus)
T1 sequence (Q5S007 1847-2527): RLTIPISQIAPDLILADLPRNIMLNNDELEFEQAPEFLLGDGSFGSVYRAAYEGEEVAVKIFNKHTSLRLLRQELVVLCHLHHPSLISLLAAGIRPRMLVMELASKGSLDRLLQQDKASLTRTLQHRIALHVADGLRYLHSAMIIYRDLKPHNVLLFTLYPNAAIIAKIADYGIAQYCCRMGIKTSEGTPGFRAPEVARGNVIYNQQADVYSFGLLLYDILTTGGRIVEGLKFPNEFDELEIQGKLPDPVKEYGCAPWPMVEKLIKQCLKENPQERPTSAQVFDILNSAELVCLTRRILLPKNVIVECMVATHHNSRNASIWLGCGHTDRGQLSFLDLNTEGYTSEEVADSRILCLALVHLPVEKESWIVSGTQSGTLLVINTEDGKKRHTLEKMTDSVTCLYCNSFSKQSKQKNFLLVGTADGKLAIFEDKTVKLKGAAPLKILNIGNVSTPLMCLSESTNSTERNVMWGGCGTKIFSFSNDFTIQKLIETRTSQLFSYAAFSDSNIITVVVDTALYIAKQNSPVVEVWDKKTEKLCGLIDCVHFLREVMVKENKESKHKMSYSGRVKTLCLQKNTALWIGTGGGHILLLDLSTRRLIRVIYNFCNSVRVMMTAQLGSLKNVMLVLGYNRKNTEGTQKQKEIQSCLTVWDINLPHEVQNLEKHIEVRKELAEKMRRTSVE
In words: DSF thermal stabilization of LRRK2^KW. The conditions noted are these: DSF, LRRK2^KW, 10 μM inhibitor. The assay is classed as binding. On the procedure:
To characterize binding between small molecules and LRRK2^KW, induced thermal stabilization was measured by DSF according to previously established protocols ([47]). In brief, LRRK2^KW was diluted to 4 μM in 20 mM Hepes (pH 7.4), 150 mM NaCl, 0.5 mM TCEP, 0.5% glycerol, 20 μM GDP, and 2.5 mM MgCl2, and SYPRO Orange was added (1:1000, MilliporeSigma). Inhibitor (10 μM) to be tested was added to a final sample volume of 20 μl per well of a 96-well plate (white, Starlab). […] The fluorescence was plotted against the temperature, and the melting point (Tm) was determined as the minimum of the first derivative relative to the control.

For a further assay, the target named is T2, LRRK2^RCKW (Homo sapiens, UniProt Q5S007).
T2 construct: LRRK2 R1327 to E2527; His6-Z-tag (TEV cleavable) (N, cleaved yes); host or cells: Sf9 insect cells (baculovirus)
T2 sequence (Q5S007 1327-2527): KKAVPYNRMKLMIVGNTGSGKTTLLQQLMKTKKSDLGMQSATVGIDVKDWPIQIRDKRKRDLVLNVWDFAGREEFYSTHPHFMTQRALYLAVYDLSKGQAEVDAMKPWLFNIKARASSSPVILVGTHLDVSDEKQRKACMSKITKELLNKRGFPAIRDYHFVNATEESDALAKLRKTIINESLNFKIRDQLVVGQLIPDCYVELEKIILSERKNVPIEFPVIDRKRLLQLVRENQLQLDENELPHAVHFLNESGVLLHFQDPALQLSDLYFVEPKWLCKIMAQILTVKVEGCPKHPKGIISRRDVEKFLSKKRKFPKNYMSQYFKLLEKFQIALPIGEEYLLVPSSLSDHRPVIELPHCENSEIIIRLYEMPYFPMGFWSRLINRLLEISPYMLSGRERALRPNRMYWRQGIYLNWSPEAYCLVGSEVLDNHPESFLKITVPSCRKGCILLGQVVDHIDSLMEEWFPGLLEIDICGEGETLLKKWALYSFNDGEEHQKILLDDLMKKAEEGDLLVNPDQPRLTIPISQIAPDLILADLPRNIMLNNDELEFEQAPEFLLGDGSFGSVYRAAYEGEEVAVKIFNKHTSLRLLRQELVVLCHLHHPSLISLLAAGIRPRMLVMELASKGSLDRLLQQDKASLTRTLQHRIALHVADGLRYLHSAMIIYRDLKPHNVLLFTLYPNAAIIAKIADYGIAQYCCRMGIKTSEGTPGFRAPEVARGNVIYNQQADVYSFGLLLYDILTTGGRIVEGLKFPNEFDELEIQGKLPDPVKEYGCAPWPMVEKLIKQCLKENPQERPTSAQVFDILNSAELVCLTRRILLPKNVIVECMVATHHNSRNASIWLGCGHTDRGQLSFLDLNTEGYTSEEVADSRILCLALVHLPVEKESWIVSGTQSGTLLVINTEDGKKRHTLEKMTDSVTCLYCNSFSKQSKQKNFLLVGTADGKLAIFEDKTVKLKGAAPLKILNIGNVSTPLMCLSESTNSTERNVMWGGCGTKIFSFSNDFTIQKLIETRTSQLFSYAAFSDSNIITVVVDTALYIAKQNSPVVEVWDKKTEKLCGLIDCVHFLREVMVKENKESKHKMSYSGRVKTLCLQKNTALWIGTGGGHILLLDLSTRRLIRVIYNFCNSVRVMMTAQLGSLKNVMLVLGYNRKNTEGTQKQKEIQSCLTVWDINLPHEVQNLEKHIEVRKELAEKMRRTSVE
In words: Biochemical LRRK2 activity assay (PhosphoSense, AssayQuant SOX peptide AQT0615). The conditions noted are these: for normalized response (LRRK2 activity): normalized to 0% (no kinase) and 100% (no inhibitor) control, two singlicate columns per compound. On the procedure:
Two wells per compound were used as 0% (without protein and compound) and 100% (without compound) control. […] The 0% control wells were filled with 10 μl of pure reaction buffer. With the ECHO, 5 nl of 100 mM ATP was pipetted into each well, the plates were centrifuged at 1500g for 2 min, and the reaction was incubated at room temperature for 4 hours. The fluorescence of the SOX-peptide after 360-nm excitation was measured at 487-nm emission with a PHERAstar plate reader (BMG Labtech). The IC50 values were calculated from a nonlinear regression of the log[inhibitor] versus the normalized response with GraphPad Prism 8 (www.graphpad.com/, RRID:SCR_002798).

By IC50 is commonly meant the concentration at which inhibition is half-maximal. Read a high IC50 as weaker potency in that assay.

Turning to `COc1cc(C(=O)N2CCOCC2)c(F)cc1Nc1nc(N(C)C)c2c(-c3cccc(NC(=O)Nc4cc(C(C)(C)C)nn4-c4ccc(C)cc4)c3)c[nH]c2n1` [Compound 34], the “∆Tm (K)” value at LRRK2^KW stood at 0.0 K. On LRRK2^RCKW (LRRK2^RCKW kinase activity, in vitro), half-maximal inhibition (IC50) required 2.82 ± 1.7 µM. Moreover, the “normalized response (LRRK2 activity)” value at LRRK2^RCKW (log[inhibitor(mol)] -4.82391) is 44.1151% and 42.1018%; on LRRK2^RCKW (log[inhibitor(mol)] -5.12494), 30.8718% and 33.6962%; at LRRK2^RCKW (log[inhibitor(mol)] -5.60206) it was 50.116% and 50.3008%; on LRRK2^RCKW (log[inhibitor(mol)] -6.30103) it was 30.7392% and 30.2826%; at LRRK2^RCKW (log[inhibitor(mol)] -6.90309) it was 79.3769% and 75.1697%; at LRRK2^RCKW (log[inhibitor(mol)] -7.30103) it was 94.0291% and 93.4725%. The “normalized response (LRRK2 activity)” value on LRRK2^RCKW (log[inhibitor(mol)] -7.60206) was 99.2059% and 99.0146%; on LRRK2^RCKW (log[inhibitor(mol)] -8.09691), 90.4133% and 94.0334%; on LRRK2^RCKW (log[inhibitor(mol)] -8.61979) it was 94.5074% and 96.3707%; at LRRK2^RCKW (log[inhibitor(mol)] -9.09691), 98.4515% and 93.6442%; at LRRK2^RCKW (log[inhibitor(mol)] -9.39794) it was 99.1494% and 99.7973%.
In the case of `COc1cc(S(C)(=O)=O)ccc1Nc1nc(N(C)C)c2c(-c3cccc(NC(=O)Nc4cc(C(C)(C)C)nn4-c4ccc5ncccc5c4)c3)c[nH]c2n1` [Compound 35], on LRRK2^KW, the “∆Tm (K)” value worked out at 1.5 K. The “normalized response (LRRK2 activity)” value at LRRK2^RCKW (log[inhibitor(mol)] -6.90309) was 115.444% and 117.007%; at LRRK2^RCKW (log[inhibitor(mol)] -7.30103), 105.55% and 105.293%; at LRRK2^RCKW (log[inhibitor(mol)] -7.60206) it was 108.325% and 105.046%; at LRRK2^RCKW (log[inhibitor(mol)] -8.09691) it was 100.105% and 95.8379%; at LRRK2^RCKW (log[inhibitor(mol)] -8.61979), 94.7466% and 91.6315%; at LRRK2^RCKW (log[inhibitor(mol)] -9.09691), 101.92% and 85.7909%. For the same molecule, on LRRK2^RCKW (log[inhibitor(mol)] -9.39794), the “normalized response (LRRK2 activity)” value was 98.761% and 96.3918%.
For `O=C(Nc1ccc(F)cc1)C1(C(=O)Nc2cccc(-c3ccc4n[nH]cc4c3)c2)CC1` [Compound 47], the “∆Tm (K)” value at LRRK2^KW was determined as 3.0 K. At LRRK2^RCKW (Table S2, bound printed in μM under head IC50 [nM]), this molecule showed a half-maximal inhibitory concentration (IC50) of over 15 µM. The “normalized response (LRRK2 activity)” value is 115.049% and 93.8598% at LRRK2^RCKW (log[inhibitor(mol)] -4.82391); 99.0859% and 93.2217% at LRRK2^RCKW (log[inhibitor(mol)] -5.12494); 93.6133% and 98.8538% at LRRK2^RCKW (log[inhibitor(mol)] -5.60206); 94.4738% and 97.6114% at LRRK2^RCKW (log[inhibitor(mol)] -6.30103); 97.3406% and 97.6501% at LRRK2^RCKW (log[inhibitor(mol)] -6.90309); 98.4526% and 101.585% on LRRK2^RCKW (log[inhibitor(mol)] -7.30103). Moreover, the “normalized response (LRRK2 activity)” value on LRRK2^RCKW (log[inhibitor(mol)] -7.60206) is 103.828% and 100.546%; on LRRK2^RCKW (log[inhibitor(mol)] -8.09691), 94.8702% and 94.0339%; on LRRK2^RCKW (log[inhibitor(mol)] -8.61979), 91.8535% and 95.7453%; at LRRK2^RCKW (log[inhibitor(mol)] -9.09691), 97.0119% and 90.234%; at LRRK2^RCKW (log[inhibitor(mol)] -9.39794), 103.089% and 99.1004%.
